Test results published in patent US8841425B2, “Cytotoxic agents comprising new maytansinoids” (ImmunoGen, Inc., priority 2003, dated 2014).
Entries after “also recorded” stand apart in the source; their conditions may differ.

How the values were obtained:
SK-BR-3 cells = experiment: In vitro cytotoxicity, clonogenic assay, SK-BR-3 cells; format: cell-based, human; settings: free maytansinoid, 72 hours exposure, read-out: IC50 towards SK-Br-3 cells
Protocol: (§1) The KB (ATCC CCl-17) cell line is of human epithelial origin. The SK-BR-3 (ATCC HTB-30) cell line was established from a human breast adenocarcinoma. The human colon tumor cell lines COLO 205 (ATCC CCL-222) and HT-29 (ATCC HTB 38), the human melanoma cell line A-375 (ATCC CRL 1619), the human Burkitts lymphoma cell line Ramos (ATCC CRL-1596) and the human myeloid leukemia cell line HL-60 (ATCC CCL-240) were all obtained from ATCC, Maryland. Cell lines were grown in Dulbecco's modified Eagles Medium (DMEM, Biowhittaker, Walkersville, Md.) with L-glutamine supplemented with 10% fetal bovine serum (Hyclone, Logan, Utah) and 50 μg/mL gentamycin sulfate (Life Technologies, Rockville, Md.). Cells were maintained at 36-37.5° C. in a humidified atmosphere that contained 6% CO2.
(§2) The cytotoxicity study performed used a clonogenic assay. The test cell lines were plated into 6-well culture dishes at a constant number of 1000 cells per well. […] The cultures were then fixed and stained with 0.2% crystal violet in 10% formalin/PBS and colonies were counted. Plating efficiency of non-treated cells (medium alone) was determined by dividing the number of colonies counted by the number of cells plated. Surviving fraction of cells exposed to the drugs was determined by dividing the number of colonies in wells that were exposed to the drug by the number of colonies in the control wells.

[1] = tested on: human melanoma cell line A-375; experiment: In vitro cytotoxicity, clonogenic assay, A-375 cells; format: cell-based; settings: for IC50: free maytansinoid, 72 hours exposure, clonogenic assay, read-out: IC50 towards A-375 cells; for fold less sensitive, antigen negative A-375 cells versus COLO 205 cells: antibody-maytansinoid conjugate
Protocol: as §1
The cytotoxicity study performed used a clonogenic assay. The test cell lines were plated into 6-well culture dishes at a constant number of 1000 cells per well. Cells were incubated with varying concentrations (0 to 3 nM) of the various maytansinoids (free or conjugated to antibodies) for 72 hours. The medium was then aspirated from the plates and replaced with fresh medium. Cultures were allowed to grow, and form colonies, for a total of 7-10 days after plating. The cultures were then fixed and stained with 0.2% crystal violet in 10% formalin/PBS and colonies were counted. Plating efficiency of non-treated cells (medium alone) was determined by dividing the number of colonies counted by the number of cells plated. Surviving fraction of cells exposed to the drugs was determined by dividing the number of colonies in wells that were exposed to the drug by the number of colonies in the control wells.

[2] = tested on: human nasopharyngeal carcinoma cells; settings: cited from earlier work
[3] = tested on: L1210 mouse leukemia system; settings: in vivo; cited from earlier work
L1210 cells = L1210 cells treated in vivo; cited from earlier work
[4] = tested on: Lewis lung carcinoma system; settings: in vivo; cited from earlier work
[5] = tested on: human acute lymphoblastic leukemia line CEM; settings: in vitro; cited from earlier work
[6] = tested on: human B-16 melanocarcinoma system; settings: in vivo; cited from earlier work
[7] = tested on: antigen positive COLO 205 cells; experiment: In vitro cytotoxicity of antibody-maytansinoid conjugates, clonogenic assay, COLO 205 cells; format: cell-based, human; settings: antibody-maytansinoid conjugate; read-out: IC50 towards antigen positive COLO 205 cells
Protocol: Conjugates of cell-binding agents with maytansinoid drugs of the invention can be evaluated for their ability to suppress proliferation of various unwanted cell lines in vitro (FIG. 6). For example, cell lines such as the human colon carcinoma line COLO 205, the human melanoma cell line A-375, the human myeloid leukemia cell line HL60 can be used for the assessment of cytotoxicity of these conjugates. Cells to be evaluated can be exposed to the compounds for 24 hours and the surviving fractions of cells measured in direct assays by known methods. IC50 values can then be calculated from the results of the assays.
The KB (ATCC CCl-17) cell line is of human epithelial origin. The SK-BR-3 (ATCC HTB-30) cell line was established from a human breast adenocarcinoma. […]
as §2, with “assay.” for “assay. The test cell lines were plated into 6-well culture dishes at a constant number of 1000 cells per well.”

[8] = tested on: COLO 205 human colon tumor xenografts; experiment: In vivo efficacy against COLO 205 xenografts; parameters: species or system mouse; settings: SCID mice, maytansinoid dose of 75 μg/kg, qd×5, intravenously
Protocol: (§3) Five-week-old female SCID mice (20 animals) were inoculated subcutaneously in the right flank with COLO 205 human colon carcinoma cells (1.5×10^6 cells/mouse) in 0.1 mL of serum-free medium. The tumors were grown for 11 days to an average size of 100 mm^3. The animals were then randomly divided into four groups (5 animals per group). The first group received huC242-DM1 conjugate (DM1 dose of 75 μg/kg, qd×5) administered intravenously. The second group received huC242-DM3 conjugate (DM3 dose of 75 μg/kg, qd×5) administered intravenously. The third group received huC242-DM4 conjugate (DM4 dose of 75 μg/kg, qd×5), while a fourth group of animals served as controls and received PBS using the same treatment schedule as in groups 1-3.
The sizes of the tumors were measured twice weekly and the tumor volumes were calculated with the formula: tumor volume=½(length×width×height). The weight of the animals was also measured twice per week. The tumors in the control group of mice grew to a size of nearly 900 mm^3 in 24 days.

[9] = tested on: HT-29 human colon tumor xenografts; experiment: In vivo efficacy against HT-29 xenografts; parameters: species or system mouse; settings: SCID mice, maytansinoid dose of 75 μg/kg, qd×5, intravenously
Protocol: as §3, with “HT-29” for “COLO 205”
The sizes of the tumors were measured twice weekly and the tumor volumes were calculated with the formula: tumor volume=½(length×width×height). The weight of the animals was also measured twice per week. The tumors in the control group of mice grew to a size of nearly 1000 mm^3 in 35 days.

[10] = tested on: human HL-60 tumor xenografts; experiment: In vivo efficacy of huMy9-6-DM4 against HL-60 xenografts in SCID mice (FIG. 11); parameters: species or system mouse
Protocol: The efficacy of huMy9-6-DM4 in vivo was determined in SCID mice bearing human HL-60 tumor xenografts. HL-60 cells were injected subcutaneously and tumors were allowed to grow to an average size of 100 mm^3. Dosage is expressed as μg DM4 in the conjugate, which corresponds to an antibody dose of approximately 67 μg antibody per μg of DM4. […] The efficacy of huMy9-6-DM4 was also compared with that of huMy9-6-DM1. […] HuMy9-6-DM4 maintained the animals in complete remission (CR) for nearly sixty days, whereas animals treated with huMy9-6-DM1 relapsed after about 20 days in CR.

Row | Molecule | IC50 (SK-BR-3 cells) [nM] | IC50 [1] [nM] | IC50 [7] [nM] | fold less sensitive, antigen negative A-375 cells versus COLO 205 cells [1] | tumor growth delay [9] [days] | also measured
1 | COc1cc2cc(c1Cl)N(C)C(=O)C[C@H](OC(=O)[C@H](C)N(C)C(=O)CCC(C)SSC)[C@]1(C)O[C@H]1[C@H](C)[C@@H]1C[C@@](O)(NC(=O)O1)[C@H](OC)/C=C/C=C(\C)C2 (some centres unmarked) [4c, N^2′-deacetyl-N^2′-(4-methyldithio-1-oxopentyl)maytansine] | 0.007 | 0.015 |  |  |  | 
2 | COc1cc2cc(c1Cl)N(C)C(=O)CC(OC(=O)[C@@H](C)N(C)C(=O)CCC(C)(C)SSC)C1(C)OC1C(C)C1CC(O)(NC(=O)O1)C(OC)/C=C/C=C(\C)C2 (some centres unmarked) [4e, N^2′-deacetyl-N^2′-(4-methyl-4-methyldithio-1-oxopentyl)maytansine] | 0.009 | 0.032 |  |  |  | 
3 | COc1cc2cc(c1Cl)N(C)C(=O)C[C@H](OC(=O)[C@H](C)N(C)C(C)=O)[C@]1(C)O[C@H]1[C@H](C)[C@@H]1C[C@@](O)(NC(=O)O1)[C@H](OC)/C=C/C=C(\C)C2 [maytansine, Maytansine] |  |  |  |  |  | inhibition of in vitro growth [2]: active inhibitor; inhibitory activity [3]: significant inhibitory activity; cells accumulating in mitosis (L1210 cells): 67%; inhibitory activity [4]: significant inhibitory activity; inhibitory concentration, as low as [5]: ≥ 10^−7 μg/ml; inhibitory activity [6]: significant inhibitory activity
4 | huC242-DM3: huC242 antibody linked to DM3 (4a), on the average 3.2-3.5 DM3 molecules per antibody molecule (conjugate, chains of the INN, looked up, DM3 maytansinoid conjugate, huC242 antibody linked to DM3 (4a), on the average 3.2-3.5 DM3 molecules per antibody molecule) VH: QVQLVQSGAEVKKPGETVKISCKASDYTFTYYGMNWVKQAPGQGLKWMGWIDTTTGEPTYAQKFQGRIAFSLETSASTAYLQIKSLKSEDTATYFCARRGPYNWYFDVWGQGTTVTVSS VL: DIVMTQSPLSVPVTPGEPVSISCRSSKSLLHSNGNTYLYWFLQRPGQSPQLLIYRMSNLVSGVPDRFSGSGSGTAFTLRISRVEAEDVGVYYCLQHLEYPFTFGPGTKLELK |  |  | 0.013 | about 500 fold | 28 | complete tumor regression lasting [8]: 45 days
5 | huC242-DM4: huC242 antibody linked to DM4 (4b), on the average 3.2-3.5 DM4 molecules per antibody molecule (conjugate, chains of the INN, looked up, DM4 maytansinoid conjugate, huC242 antibody linked to DM4 (4b), on the average 3.2-3.5 DM4 molecules per antibody molecule) VH: QVQLVQSGAEVKKPGETVKISCKASDYTFTYYGMNWVKQAPGQGLKWMGWIDTTTGEPTYAQKFQGRIAFSLETSASTAYLQIKSLKSEDTATYFCARRGPYNWYFDVWGQGTTVTVSS VL: DIVMTQSPLSVPVTPGEPVSISCRSSKSLLHSNGNTYLYWFLQRPGQSPQLLIYRMSNLVSGVPDRFSGSGSGTAFTLRISRVEAEDVGVYYCLQHLEYPFTFGPGTKLELK |  |  | 0.011 | about 500 fold | 36 | tumor response (regression, cures) [8]: cures of all the treated mice; also recorded: cures of all the treated animals
6 | huMy9-6-DM1: huMy9-6 conjugate of a previously described maytansinoid (DM1) (conjugate, chains of the INN, looked up, DM1 maytansinoid conjugate) VH: QVQLVESGGGVVQPGRSLRLSCAASGFTFSSFGMHWVRQAPGKGLEWVAYISSGSFTIYYADSVKGRFTISRDNSKNTLYLQMNSLRAEDTAVYYCARMRKGYAMDYWGQGTLVTVSS VL: DVVMTQSPLSLPVTLGQPASISCRSSQIIIHSDGNTYLEWFQQRPGQSPRRLIYKVSNRFSGVPDRFSGSGSGTDFTLKISRVEAEDVGVYYCFQGSHVPHTFGQGTKVEIK |  |  |  |  |  | time in complete remission (CR) ([10]; SCID mice, i.v. once a day for 5 days): about 20 days; tumor growth delay ([10]; subcutaneous HL-60 xenograft, equivalent dose, FIG. 11): about 48 days
